Patent publication US11208416B2, “Selective inhibitors of protein arginine methytransterase 5 (PRMT5)” (Prelude Therapeutics, Incorporated, priority 2017, dated 2021)

Legend:
PRMT5/MEP50 complex = PRMT5/MEP50 complex (Homo sapiens (Human), UniProt O14744); test: Biochemical assay, PRMT5/MEP50 methylation of histone H2A with 3H-SAM; conditions: histone H2A 5 μM, PRMT5/MEP50 5 nM
Experimental: Biochemical Assay Protocol
Compounds were solubilized and 3-fold diluted in 100% DMSO. […] Standard reactions were performed in a total volume of […] assay buffer, with histone H2A (5 μM final) as substrate. To this was added the PRMT5/MEP50 complex diluted to provide a final assay concentration of 5 nM and the compounds were allowed to preincubate for 15 to 20 minutes at room temperature. The reaction was initiated by adding S-[3H-methyl]-adenosyl-L-methionine (PerkinElmer) to final concentration of […]. Following a 60 minutes incubation at 30° C., the reaction was stopped by adding 100 μL of 20% TCA. Each reaction was spotted onto filter plate (MultiScreen FB Filter Plate, Millipore), and washed 5 times with PBS buffer, Scintillation fluid was added to the filter plate and read in a scintillation counter. IC50 values were determined by fitting the data to the standard 4 parameters with Hill Slope using GraphPad Prism software.

sDMA = sDMA levels in tumor samples of Granta-519 mouse xenograft (Western blot); assay type: in vivo; conditions: 50 mg/kg orally QD
Experimental: Granta-519 cells was maintained in DMEM medium supplemented with 10% fetal bovine serum and 2 mM L-Glutamine at 37° C. in an atmosphere of 5% CO2 in air. Cells in exponential growth phase were harvested and 1×10^7 cells in 0.1 mL of PBS with Matrigel (1:1) were injected subcutaneously at the right lower flank region of each mouse for tumor development. The treatments were started when the mean tumor size reaches approximately 300-400 mm^3. […] Example 47 or vehicle (0.5% Na CMC+0.5% Tween80, suspension) were administered orally (QD for Example 47, QD for vehicle) at a dose of 30 mg/kg and 50 mg/kg for 19 and 16 days, respectively. Body weights and tumor size were measured every 3 to 4 days after randomization. Animals were euthanized 12 hours after last dosing, and blood and tumor samples were collected for analysis.
To measure sDMA levels in tumor samples, tumors from each mouse were weighted and homogenized in RIPA buffer supplemented with protease inhibitor (cOmplete™ EDTA-free Protease Inhibitor Cocktail, Roche). Lysate were centrifuged at 14,000 rpm for 30 min at 4° C. to remove debris. Total protein concentrations of lysate were determined by BCA assay (ThermoFisher Scientific, Catalog #: 23225). Equal amount of total proteins from each tumor were separated on SDS-PAGE gel, and sDMA levels were determined by WB as described previously.

[1] = tested on: Symmetric Di-Methyl Arginine (sDMA); test: Western blot for sDMA marks in Granta cells (enzyme inhibition IC50); assay type: cell-based; conditions: Homo sapiens, 72 h; Granta-519 cell line, 3 days
Granta-519 cells = test: Cell proliferation assay on Granta-519 cells (CCK-8); assay type: cell-based; conditions: Homo sapiens, 240 h; Granta-519 cell line, day 10; read-out: Prolif. IC50
Experimental: Cell Proliferation Assay to Determine IC50 on Granta-519 Cells
Granta-519 cells were maintained in PRMI 1640 (Corning Cellgro, Catalog #: 10-040-CV) medium supplemented with 10% v/v FBS (GE Healthcare, Catalog #: SH30910.03). Compounds were dissolved in DMSO to make 10 mM stocks and stored at −20° C. Nine-point, 3-fold serial dilutions were made with DMSO with top concentration at 1 mM (working stocks).
On day of experiment, compound working stocks were further diluted at 1:50 with fresh medium in 96 well plate, and 10 μL of diluted drugs were added to a new 96 well plate for proliferation assay. Cells growing at exponential phase were spun down at 1500 rpm for 4 min and resuspend in fresh medium to reach a density of 0.5×10^6 cells/ml. 200 ul of cells were added to 96 well plate containing diluted drugs and incubated for 3 days. DMSO was used a vehicle control.
One day 3, 10 μL of Cell Counting Kit-8 (CCK-8, Jojindo, CK04-13) solution was added to a new 96 well plate. […] Plates were incubated in CO2 incubator for 2 hours and OD450 values were measured with a microplate reader (iMark microplate reader, Bio-Rad). […]
Percentage of viable cells, relative to DMSO vehicle control, were calculated and plotted in Graphpad Prism ([Inhibitor] vs. normalized response−Variable slope) to determine proliferation IC50 values on day 10.

PRMT5/MEP50 complex, sequence (O14744 whole entry): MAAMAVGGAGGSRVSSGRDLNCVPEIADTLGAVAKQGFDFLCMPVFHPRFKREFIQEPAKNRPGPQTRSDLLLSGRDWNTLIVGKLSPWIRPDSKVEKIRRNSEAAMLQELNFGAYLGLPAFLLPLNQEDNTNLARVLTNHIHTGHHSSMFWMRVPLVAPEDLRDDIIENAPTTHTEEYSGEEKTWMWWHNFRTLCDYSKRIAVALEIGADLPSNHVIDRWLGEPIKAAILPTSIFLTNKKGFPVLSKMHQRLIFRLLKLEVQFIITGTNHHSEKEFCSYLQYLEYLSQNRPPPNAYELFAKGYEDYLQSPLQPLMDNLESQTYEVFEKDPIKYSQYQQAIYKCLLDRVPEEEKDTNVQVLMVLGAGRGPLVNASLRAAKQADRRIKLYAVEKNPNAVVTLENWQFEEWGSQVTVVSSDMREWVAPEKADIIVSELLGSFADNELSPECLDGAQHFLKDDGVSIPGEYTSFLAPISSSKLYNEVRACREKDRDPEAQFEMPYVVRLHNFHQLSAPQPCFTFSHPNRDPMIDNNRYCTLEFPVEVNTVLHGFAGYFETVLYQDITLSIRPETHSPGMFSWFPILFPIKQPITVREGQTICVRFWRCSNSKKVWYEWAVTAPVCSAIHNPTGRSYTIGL
PRMT5/MEP50 complex, sequence (Q9BQA1 whole entry partner): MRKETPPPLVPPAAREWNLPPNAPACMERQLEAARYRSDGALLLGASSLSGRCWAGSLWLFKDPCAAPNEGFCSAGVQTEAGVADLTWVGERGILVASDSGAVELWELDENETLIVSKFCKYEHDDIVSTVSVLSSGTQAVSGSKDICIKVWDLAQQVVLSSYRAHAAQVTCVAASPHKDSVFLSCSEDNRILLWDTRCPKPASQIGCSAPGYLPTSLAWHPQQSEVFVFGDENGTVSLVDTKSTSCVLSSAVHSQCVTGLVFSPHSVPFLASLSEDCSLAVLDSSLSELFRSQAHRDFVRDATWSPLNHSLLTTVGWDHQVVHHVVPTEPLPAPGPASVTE

| IC50 (PRMT5/MEP50 complex) | IC50 [1] | Compound | sDMA level in tumor (sDMA) | IC50 (Granta-519 cells) |
| --- | --- | --- | --- | --- |
| 1610 nM |  | Cc1ncnc2c1ccn2[C@@H]1O[C@H](Cc2ccc(Cl)cc2CO)[C@@](C)(O)[C@H]1O [Example 64, (2R,3S,4R,5R)-2-[[4-chloro-2-(hydroxymethyl)phenyl]methyl]-3-methyl-5-(4-methylpyrrolo[2,3-d]pyrimidin-7-yl)tetrahydrofuran-3,4-diol] |  |  |
|  |  | C[C@@]1(O)[C@@H]([C@H](O)c2ccc(Cl)c(Cl)c2)O[C@@H](n2ccc3c(N)ncnc32)[C@@H]1O [Example 47, (2R,3S,4R,5R)-5-(4-amino-7H-pyrrolo[2,3-d]pyrimidin-7-yl)-2-((R)-(3,4-dichlorophenyl)(hydroxy)methyl)-3-methyltetrahydrofuran-3,4-diol] | no detectable sDMA |  |
| 900 nM | 1000 nM | CSC[C@H]1O[C@@H](n2ccc3c(N)ncnc32)[C@H](O)[C@]1(C)O [Example 17, (2S,3S,4R,5R)-5-(4-amino-7H-pyrrolo[2,3-d]pyrimidin-7-yl)-3-methyl-2-((methylthio)methyl)tetrahydrofuran-3,4-diol] |  | 200000 nM |
